Measurements reported in PubChem BioAssay AID248 (DTP/NCI, 2004).
Inconclusive results and toxic doses are left out. Rule as the data show it: active = T/C of 150% or more; inactive = T/C below 125%. Square brackets hold non-standard residues; d marks the D form. Peptide text beside a SMILES is read from it. * marks the point of attachment. ONb = O=[N+]([O-])c1ccc(CO*)cc1; Cbz = O=C(OCc1ccccc1)*; Nva = CCC[CH](N)C(=O)O; Bn = c1ccc(C*)cc1

System: L1210 leukemia ip in BDF1 mice, survival T/C
Assay: NCI In Vivo Anticancer Drug Screen. Data for tumor model L1210 Leukemia (intraperitoneal) in B6D2F1 (BDF1) mice
Conditions: endpoint: mean survival time, higher = longer survival
In short: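 Antitumor effect is assessed in tumor-bearing animals. Survival in the compound arm is compared with a vehicle-dosed control arm and expressed as their quotient.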

[1] = dose: 75.0 mg/kg/injection, schedule: Q01DX009 (ip), vehicle: Klucel (hydroxypropylcellulose) (HPC)
[2] = dose: 150.0 mg/kg/injection, schedule: Q01DX009 (ip), vehicle: Klucel (hydroxypropylcellulose) (HPC)
[3] = dose: 300.0 mg/kg/injection, schedule: Q01DX009 (ip), vehicle: Klucel (hydroxypropylcellulose) (HPC)
[4] = dose: 50.0 mg/kg/injection, schedule: Q01DX009 (ip), vehicle: Klucel (hydroxypropylcellulose) (HPC)
[5] = dose: 100.0 mg/kg/injection, schedule: Q04DX003 (ip), vehicle: saline
[6] = dose: 100.0 mg/kg/injection, schedule: Q01DX001 (ip), vehicle: saline
[7] = dose: 200.0 mg/kg/injection, schedule: Q01DX001 (ip), vehicle: saline
[8] = dose: 200.0 mg/kg/injection, schedule: Q04DX003 (ip), vehicle: saline
[9] = dose: 400.0 mg/kg/injection, schedule: Q01DX001 (ip), vehicle: saline
[10] = dose: 400.0 mg/kg/injection, schedule: Q04DX003 (ip), vehicle: saline
[11] = dose: 100.0 mg/kg/injection, schedule: Q01DX009 (ip), vehicle: saline
[12] = dose: 200.0 mg/kg/injection, schedule: Q01DX009 (ip), vehicle: saline
[13] = dose: 400.0 mg/kg/injection, schedule: Q01DX009 (ip), vehicle: saline
[14] = dose: 100.0 mg/kg/injection, schedule: Q01DX009 (ip), vehicle: Klucel (hydroxypropylcellulose) (HPC)
[15] = dose: 200.0 mg/kg/injection, schedule: Q01DX009 (ip), vehicle: Klucel (hydroxypropylcellulose) (HPC)
[16] = dose: 12.5 mg/kg/injection, schedule: Q01DX009 (ip), vehicle: saline

Measured: T/C

CO/C([O-])=N/S(=O)(=O)n1cc[n+](C)c1
inactive: [1] 98 % of control | [2] 86 % of control | [3] 95 % of control

O=C(CCN1CC1)Nc1ccccc1
inactive: dose: 3.12 mg/kg/injection, schedule: Q01DX009 (ip), vehicle: Klucel (hydroxypropylcellulose) (HPC) 110 % of control | dose: 6.25 mg/kg/injection, schedule: Q01DX009 (ip), vehicle: Klucel (hydroxypropylcellulose) (HPC) 108 % of control | dose: 12.5 mg/kg/injection, schedule: Q01DX009 (ip), vehicle: Klucel (hydroxypropylcellulose) (HPC) 106 % of control | dose: 12.5 mg/kg/injection, schedule: Q04DX003 (ip), vehicle: Klucel (hydroxypropylcellulose) (HPC) 107 % of control | dose: 25.0 mg/kg/injection, schedule: Q01DX009 (ip), vehicle: Klucel (hydroxypropylcellulose) (HPC) 106 % of control | dose: 25.0 mg/kg/injection, schedule: Q04DX003 (ip), vehicle: Klucel (hydroxypropylcellulose) (HPC) 91 % of control | [4] 102 % of control | dose: 50.0 mg/kg/injection, schedule: Q04DX003 (ip), vehicle: Klucel (hydroxypropylcellulose) (HPC) 95 % of control | [5] 91 % of control

CSc1ccc(NC(=O)Nc2c(C)n(C)n(-c3ccccc3)c2=O)cc1
inactive: [6] 89 % of control | dose: 100.0 mg/kg/injection, schedule: Q01DX009 (ip), vehicle: saline with Tween-80 89 % of control | [5] 94 % of control | [7] 89 % of control | dose: 200.0 mg/kg/injection, schedule: Q01DX009 (ip), vehicle: saline with Tween-80 89 % of control | [8] 94 % of control | [9] 94 % of control | dose: 400.0 mg/kg/injection, schedule: Q01DX009 (ip), vehicle: saline with Tween-80 86 % of control | [10] 87 % of control

CCCC(NC(=O)C(CSCc1ccccc1)NC(=O)OCc1ccccc1)C(=O)OCc1ccc([N+](=O)[O-])cc1 (stereo not given) (Cbz-Cys(Bn)-[Nva]-ONb; configuration not given here)
inactive: dose: 100.0 mg/kg/injection, schedule: Q01DX001 (ip), vehicle: other 90 % of control | dose: 200.0 mg/kg/injection, schedule: Q01DX001 (ip), vehicle: other 90 % of control | dose: 400.0 mg/kg/injection, schedule: Q01DX001 (ip), vehicle: other 89 % of control

Cc1ccccc1S(=O)(=O)/C(=C(/I)c1ccccc1)c1ccccc1
inactive: [6] 90 % of control | [7] 92 % of control | [9] 95 % of control

COc1cc(-c2cc(=O)c3c(O)cc(O)c(C4OC(CO)C(O)C(O)C4O)c3o2)ccc1O (stereo not given)
inactive: [11] 108 % of control | [12] 108 % of control | [13] 103 % of control

COc1ccc(OC)c(NC(=O)c2cccc(F)c2)c1
inactive: [14] 97 % of control | [15] 101 % of control | dose: 400.0 mg/kg/injection, schedule: Q01DX009 (ip), vehicle: Klucel (hydroxypropylcellulose) (HPC) 100 % of control

CCCCCCCCN(CC)CC
inactive: dose: 50.0 mg/kg/injection, schedule: Q01DX001 (ip), vehicle: saline 88 % of control | [6] 90 % of control | [7] 90 % of control

Cc1cc(NS(=O)(=O)c2ccc(N=Nc3c(N)nc(N)nc3N)cc2)nc(C)n1
inactive: dose: 100.0 mg/kg/injection, schedule: Q01DX001 (ip), vehicle: carboxymethylcellulose (CMC) 103 % of control | dose: 200.0 mg/kg/injection, schedule: Q01DX001 (ip), vehicle: carboxymethylcellulose (CMC) 97 % of control | dose: 400.0 mg/kg/injection, schedule: Q01DX001 (ip), vehicle: carboxymethylcellulose (CMC) 105 % of control

CN(C)CCOc1ccccc1Cc1ccccc1
inactive: [16] 96 % of control | dose: 25.0 mg/kg/injection, schedule: Q01DX009 (ip), vehicle: saline 97 % of control | dose: 25.0 mg/kg/injection, schedule: Q04DX003 (ip), vehicle: saline 107 % of control | dose: 50.0 mg/kg/injection, schedule: Q01DX009 (ip), vehicle: saline 90 % of control | dose: 50.0 mg/kg/injection, schedule: Q04DX003 (ip), vehicle: saline 98 % of control | [11] 103 % of control | [5] 107 % of control | [12] 110 % of control | [8] 107 % of control

C[C@@H]1C[C@@]2(C)[C@@H](CC[C@@H]3[C@@H]2CC[C@]2(C)OC(=O)CC[C@@H]32)CC1=O
inactive: [4] 95 % of control | [14] 97 % of control | dose: 100.0 mg/kg/injection, schedule: Q04DX003 (ip), vehicle: other 98 % of control | [15] 100 % of control | dose: 200.0 mg/kg/injection, schedule: Q04DX003 (ip), vehicle: other 101 % of control

CSc1cccc(NC(=O)/C=C/C(=O)O)c1
inactive: [1] 98 % of control | [2] 93 % of control | [3] 93 % of control

O=S(=O)(O)c1ccc(CCCCCCCCl)cc1
inactive: dose: 100.0 mg/kg/injection, schedule: Q04DX002 (ip), vehicle: Klucel (hydroxypropylcellulose) (HPC) 100 % of control | dose: 200.0 mg/kg/injection, schedule: Q04DX002 (ip), vehicle: Klucel (hydroxypropylcellulose) (HPC) 90 % of control

O=C(CBr)c1cccnc1
inactive: dose: 6.25 mg/kg/injection, schedule: Q01DX009 (ip), vehicle: saline 98 % of control | [16] 98 % of control

O=C(O)c1[nH]c(=O)[nH]c(=O)c1CN1CCCCC1
inactive: dose: 100.0 mg/kg/injection, schedule: Q01DX Z (ip), vehicle: methylcellulose (MC) 93 % of control | dose: 200.0 mg/kg/injection, schedule: Q01DX Z (ip), vehicle: methylcellulose (MC) 93 % of control

CCCCOP(=O)(/C=C/c1cccs1)OCCCC
inactive: dose: 100.0 mg/kg/injection, schedule: Q04DX003 (ip), vehicle: saline with Tween-80 100 % of control | dose: 200.0 mg/kg/injection, schedule: Q04DX003 (ip), vehicle: saline with Tween-80 94 % of control

O/N=c1/cc(-c2ccc(Cl)cc2)ss1
inactive: [11] 91 % of control | [5] 93 % of control | [12] 89 % of control | [8] 95 % of control | [13] 96 % of control | [10] 97 % of control
